Assay results taken from patent publication US11931347B2, “Method of screening for agents for differentiating stem cells” (MINERVA BIOTECHNOLOGIES CORPORATION, priority 2015, dated 2024).

Tests used:
[1] = tested on: T47D breast cancer cells; experiment: cancer cell proliferation assay (Calcein live cell stain); format: cell-based, human; details: live cell Calcein stain, 96 hours (FIG. 113)
[2] = tested on: OV-90 MUC1* negative ovarian cancer cells; experiment: cancer cell proliferation assay (Calcein); format: cell-based; details: 96 hours (FIG. 114)
Procedure: Small molecule inhibition of cancer cell proliferation studies were also performed on several cancer sub-types. […] The small molecules of the invention had the most robust effect on T47D breast cancer cells, which are highly positive for MUC1* growth factor receptor, and its activating ligands NME7AB and NME7-X1. […] For the cancer cell proliferation experiment cancer cells were plated at constant densities (6000 cells/well) into a 96-well White-walled/Clear-bottom Tissue Culture Treated plate (Corning Incorporated, Big Flats, N.Y.). Small molecule analogs are added at T=24 hours in media with 2% FBS. Following the addition of the small molecules, the cells remain untouched for 120 hours with visual confirmations/inspections at 24, 48, 72 and 96 hours post plating. At the 120 hour mark a calcein fluorescence assay (Thermo Fisher Scientific, Waltham, Mass.) is performed on the plate. Calcein fluorescence (final concentration 0.5 uM) is used to assess cell viability. Cancer cell fluorescence is measured in a TECAN SAFIRE^2 spectrophotometer plate reader. The plate is then imaged using an Olympus IX71 fluorescence imaging microscope and montage of the resulting images are assembled using ImageJ.

Cc1sc2c(c1C)C(c1ccc(Cl)cc1)=N[C@@H](CC(=O)OC(C)(C)C)c1nnc(C)n1-2 [JQ1+, JQ1]
inhibition of growth of T47D cells [1]: inhibited growth | effect on growth of OV-90 cells [2]: neither the compounds of the invention nor JQ1 or SU11274 had any apparent effect
